The results in this text go back to patent US4921984A, “Novel platinum complexes” (Nippon Kayaku Kabushiki Kaisha, priority 1985, dated 1990).

The structures appear in SMILES notation. Some results are limits rather than exact numbers.

One series has as its system mouse leukemia L1210. The series can be described thus: Antitumor activity test on mouse leukemia L1210 in vivo. Conditions: for max (T/C): L1210, average survival time treated/control ×100, i.p. once a day for 5 days; for Opt. dose: L1210, dose giving max (T/C); for Opt. dose / LD50: i.p. once a day for 5 days; for LD50: L1210-bearing CDF1 mice. On the procedure: Mice of compound-non-treated group (control group) were administered with physiological saline solution in the same manner. The average survival times of the compound-treated group and the control group (abbreviated as T and C, respectively) were measured and T/C percentage (T/C×100) was calculated from the following equation. [formula]
In Table 4, max (T/C) means the maximum value of T/C and optimum dose (opt. dose) means an administration amount giving the max namely, an optimum administration amount.

Series [1] deals with mouse leukemia L1210 cells. The series can be described thus: Growth inhibition test on cultured mouse leukemia L1210 cells. It is filed as cell-based. The conditions noted are these: RPMI 1640 with 10% fetal calf serum. On the procedure:
Mouse leukemia L1210 cells were cultured in a RPMI 1640 medium containing 10% of fetal calf serum.

Consider `CCC1CC[NH2+][Pt-2]([Cl])([Cl])[NH2+]C1` (racemic) [Compound No. 29, cis-Dichloro-2-ethyl-1,4-butanediamine platinum], for which the “Solubility in physiological saline solution” value is reported as more than 2 mg/ml. In the series with mouse leukemia L1210, the “max (T/C)” value is given as 261%, the Opt. dose is reported as 2 mg/kg and the LD50 is reported as 3.0 mg/kg. Moreover, the IC50 in series [1] was 0.05 µg/mL.
In turn, `CCC1CC[NH2+][Pt-2]2([NH2+]C1)[O]C(=O)C(C)(C)C(=O)[O]2` (racemic) [Compound No. 33, cis-Dimethylmalonato-2-ethyl-1,4-butanediamine platinum] yielded an IC50 in series [1] of 0.23 µg/mL.
As for `CC1(C)CC[NH2+][Pt-2]2([NH2+]C1)[O]C(=O)C(C)(C)C(=O)[O]2` [Compound No. 24, cis-Dimethylmalonato-2,2-dimethyl-1,4-butanediamine platinum], in the series with mouse leukemia L1210, the “max (T/C)” value is on record as 253% and the Opt. dose is 64 mg/kg. For the same compound, the 50% inhibitory concentration (IC50) in series [1] turned out to be 0.78 µg/mL.
As to `O=C1[O][Pt-2]2([NH2+]CCCC[NH2+]2)[O]C(=O)C12CCOCC2` [Compound No. 3, cis-4-Oxacyclohexane-1,1-dicarboxylato-1,4-butanediamine platinum], the Solubility in water is more than 10000 µg/mL. In the series with mouse leukemia L1210, the “max (T/C)” value is given as 132%, the Opt. dose stood at 8 mg/kg and the LD50 is given as 8.4 mg/kg. Moreover, in series [1], the IC50 came to 0.65 µg/mL.
On to `CC1CC[NH2+][Pt-2]2([NH2+]C1)[O]C(=O)CC(=O)[O]2` (racemic) [Compound No. 14, cis-Malonato-2-methyl-1,4-butanediamine platinum], for which, in the series on mouse leukemia L1210, the “max (T/C)” value stood at 346% and the Opt. dose stood at 32 mg/kg. This compound showed a 50% inhibitory concentration (IC50) in series [1] of 0.74 µg/mL.
Turning to `CC1(C)CCC[NH2+][Pt-2]2([NH2+]1)[O]C(=O)C(=O)[O]2` [Compound No. 26, cis-Oxalato-1,1-dimethyl-1,4-butanediamine platinum], the IC50 in series [1] stood at 0.30 µg/mL.
Consider `CC1(C)CCC[NH2+][Pt-2]([Cl])([Cl])[NH2+]1` [Compound No. 25, cis-Dichloro-1,1-dimethyl-1,4-butanediamine platinum], for which the “Solubility in physiological saline solution” value is listed as more than 2 mg/ml. In addition, in the series with mouse leukemia L1210, the “max (T/C)” value is given as 150%, the Opt. dose was determined as 2 mg/kg and the LD50 was found to be 3.0 mg/kg. In addition, the IC50 in series [1] turned out to be 0.25 µg/mL.
For `CC1(C)CC[NH2+][Pt-2]2([NH2+]C1)[O]C(=O)C1(CCOCC1)C(=O)[O]2` [Compound No. 23, cis-4-Oxacyclohexane-1,1-dicarboxylato-2,2-dimethyl-1,4-butanediamine platinum], the Solubility in water was more than 3000 µg/mL. Further, in the series with mouse leukemia L1210, the “max (T/C)” value is on record as 159% and the Opt. dose stood at 32 mg/kg. In series [1], the IC50 worked out at 0.44 µg/mL.
The corresponding values for `CCC(N)CCCN.O=C([O-])C1(C(=O)[O-])CCC1.[Pt+2]` [Compound No. 11, cis-Cyclobutane-1,1-dicarboxylato-1-ethyl-1,4-butanediamine platinum] are more than 3000 µg/mL, 139%, 64 mg/kg and 4.70 µg/mL.
As for `CC(N)CCCN.O=C([O-])C1(C(=O)[O-])CCC1.[Pt+2]` [Compound No. 7, cis-Cyclobutane-1,1-dicarboxylato-1-methyl-1,4-butanediamine platinum], in the series on mouse leukemia L1210, the “max (T/C)” value stood at 176% and the Opt. dose amounted to 64 mg/kg. This compound also gave an IC50 in series [1] of 2.80 µg/mL.
Consider `CCC(N)CCCN.O=C([O-])C1(C(=O)[O-])CCOCC1.[Pt+2]` [Compound No. 12, cis-4-Oxacyclohexane-1,1-dicarboxylato-1-ethyl-1,4-butanediamine platinum], for which, in the series with mouse leukemia L1210, the “max (T/C)” value stood at 181% and the Opt. dose is given as 64 mg/kg. In series [1], this compound had an IC50 of 1.05 µg/mL.
In the case of `CC1CC[NH2+][Pt-2]([Cl])([Cl])[NH2+]C1` (racemic) [Compound No. 13, cis-Dichloro-2-methyl-1,4-butanediamine platinum], the “Solubility in physiological saline solution” value is given as more than 2 mg/ml. Moreover, in the series on mouse leukemia L1210, the “max (T/C)” value was 187%, the Opt. dose came out at 2 mg/kg and the LD50 came to 4.2 mg/kg. Further, the IC50 in series [1] was found to be 0.10 µg/mL.
With `CC1CCC[NH2+][Pt-2]2([NH2+]1)[O]C(=O)C(C)(C)C(=O)[O]2` (racemic) [Compound No. 8, cis-Dimethylmalonato-1-methyl-1,4-butanediamine platinum], in the series with mouse leukemia L1210, the “max (T/C)” value turned out to be 189% and the Opt. dose is listed as 64 mg/kg. This compound showed an IC50 in series [1] of 0.90 µg/mL.
Regarding `CC(N)CCCN.O=C([O-])C(=O)[O-].[Pt+2]` (stereo not drawn) [Compound No. 5, cis-Oxalato-1-methyl-1,4-butanediamine platinum], in the series on mouse leukemia L1210, the “max (T/C)” value turned out to be 273% and the Opt. dose was determined as 4 mg/kg. For the same compound, the IC50 in series [1] was 0.29 µg/mL.
For the compound `O=C1[O][Pt-2]2([NH2+]CCCC[NH2+]2)[O]C(=O)C12CCC2` [Compound No. 2, cis-Cyclobutane-1,1-dicarboxylato-1,4-butanediamine Platinum], in the series with mouse leukemia L1210, the “max (T/C)” value was determined as 182%, the Opt. dose came to 32 mg/kg and the LD50 was found to be 48.0 mg/kg. The IC50 in series [1] worked out at 0.88 µg/mL.
Take `CC1CCC[NH2+][Pt-2]([Cl])([Cl])[NH2+]1` (racemic) [Compound No. 4]: the “Solubility in physiological saline solution” value is more than 2 mg/ml. Further, in the series with mouse leukemia L1210, the “max (T/C)” value was 225%, the Opt. dose is 2 mg/kg and the LD50 was 2.4 mg/kg. This compound showed an IC50 in series [1] of 0.20 µg/mL.
`CCC(CN)CCN.O=C([O-])CC(=O)[O-].[Pt+2]` (stereo not drawn) [Compound No. 31, cis-Malonato-2-ethyl-1,4-butanediamine platinum] registered a 50% inhibitory concentration (IC50) in series [1] of 0.66 µg/mL.
Consider `CC1(C)CC[NH2+][Pt-2]2([NH2+]C1)[O]C(=O)C(=O)[O]2` [Compound No. 20, cis-Oxalato-2,2-dimethyl-1,4-butanediamine platinum], for which, in the series with mouse leukemia L1210, the “max (T/C)” value is 272% and the Opt. dose is 8 mg/kg. Further, the IC50 in series [1] was 0.37 µg/mL.
`CC(C)(C(=O)[O-])C(=O)[O-].CC(C)(N)CCCN.[Pt+2]` [Compound No. 28, cis-Dimethylmalonato-1,1-dimethyl-1,4-butanediamine platinum] registered a concentration for half-maximal inhibition (IC50) in series [1] of 4.50 µg/mL.
As for `CC1CC[NH2+][Pt-2]2([NH2+]C1)[O]C(=O)C1(CCOCC1)C(=O)[O]2` (racemic) [Compound No. 16, cis-4-Oxacyclohexane-1,1-dicarboxylato-2-methyl-1,4-butanediamine platinum], the Solubility in water is more than 15000 µg/mL. Also, in the series with mouse leukemia L1210, the “max (T/C)” value came out at 167%, the Opt. dose came out at 8 mg/kg and the LD50 came out at 12.0 mg/kg. Besides, the IC50 in series [1] is 0.43 µg/mL.
For the compound `CC1CC[NH2+][Pt-2]2([NH2+]C1)[O]C(=O)C(C)(C)C(=O)[O]2` (racemic) [Compound No. 17, cis-Dimethylmalonato-2-methyl-1,4-butanediamine platinum], in the series on mouse leukemia L1210, the “max (T/C)” value came to 238% and the Opt. dose is 32 mg/kg. Besides, the IC50 in series [1] was found to be 0.50 µg/mL.
As to `CC1(C)CCC[NH2+][Pt-2]2([NH2+]1)[O]C(=O)C1(CCC1)C(=O)[O]2` [Compound No. 27, cis-Cyclobutane-1,1-dicarboxylato-1,1-dimethyl-1,4-butanediamine platinum], the Solubility in water is more than 10000 µg/mL.
Consider `CC1(C)CC[NH2+][Pt-2]([Cl])([Cl])[NH2+]C1` [Compound No. 19, cis-Dichloro-2,2-dimethyl-1,4-butanediamine platinum], for which the “Solubility in physiological saline solution” value is reported as more than 2 mg/ml. In addition, in the series on mouse leukemia L1210, the “max (T/C)” value is recorded as 359%, the Opt. dose is reported as 4 mg/kg and the LD50 amounted to 6.0 mg/kg. For the same compound, in series [1], the half-inhibitory concentration (IC50) came to 0.20 µg/mL.
In turn, `CC(C)(CN)CCN.O=C([O-])C1(C(=O)[O-])CCC1.[Pt+2]` [Compound No. 22, cis-Cyclobutane-1,1-dicarboxylato-2,2-dimethyl-1,4-butanediamine platinum] displayed a Solubility in water of more than 3000 µg/mL. In the series on mouse leukemia L1210, the “max (T/C)” value is reported as 320% and the Opt. dose worked out at 128 mg/kg. Besides, the IC50 in series [1] worked out at 2.20 µg/mL.
On to `CCC1CC[NH2+][Pt-2]2([NH2+]C1)[O]C(=O)C(=O)[O]2` (racemic) [Compound No. 30, cis-Oxalato-2-ethyl-1,4-butanediamine platinum], for which, in the series on mouse leukemia L1210, the “max (T/C)” value stood at 253% and the Opt. dose was 8 mg/kg. Also, the IC50 in series [1] was 0.06 µg/mL.
With `CC1(C)CC[NH2+][Pt-2]2([NH2+]C1)[O]C(=O)CC(=O)[O]2` [Compound No. 21, cis-Malonato-2,2-dimethyl-1,4-butanediamine platinum], in the series with mouse leukemia L1210, the “max (T/C)” value was 301% and the Opt. dose was determined as 32 mg/kg. The compound also had an IC50 in series [1] of 0.72 µg/mL.
Regarding `CCC(CN)CCN.O=C([O-])C1(C(=O)[O-])CCC1.[Pt+2]` [Compound No. 32, cis-Cyclobutane-1,1-dicarboxylato-2-ethyl-1,4-butanediamine platinum], in the series with mouse leukemia L1210, the “max (T/C)” value amounted to 275% and the Opt. dose was determined as 32 mg/kg. Moreover, the IC50 in series [1] turned out to be 0.67 µg/mL.
With `CC(N)CCCN.O=C([O-])CC(=O)[O-].[Pt+2]` (stereo not drawn) [Compound No. 6, cis-Malonato-1-methyl-1,4-butanediamine platinum], in the series with mouse leukemia L1210, the “max (T/C)” value is given as 359% and the Opt. dose amounted to 32 mg/kg. Also, in series [1], the IC50 was found to be 0.76 µg/mL.
